In US12128064B1, “Polysilane methacrylic compounds and methods of making them” (Zetagen Therapeutics, Inc., priority 2024, dated 2024):

Test system: BT-474 breast cancer cells
Assay: Toxicity of the Compound (IVa) polymer in BT-474 cultures
Assay type: cell-based
Conditions: 24-hours
Description: The small molecule, N-allyl noroxymorphone hydrochloride, was added to Compound IVa (SiH3—[SiH2]n—SiH2—[C5H7O2]n with Ca10(PO4)6(OH)2) at a concentration of 0.4-mg N-allyl noroxymorphone/mg of Compound IVa. Then the MAGE-Polymerization Initiator Solution containing the vinyl monomer vinyl methacrylate was added in a ratio of 2:1. The material—with N-allyl noroxymorphone hydrochloride—was then polymerized and added to cultures of BT-474 breast cancer cells. Cultures were also treated with N-allyl noroxymorphone hydrochloride alone. Control cultures received no treatment.

Compound: C=CCN1CC[C@]23c4c5ccc(O)c4O[C@H]2C(=O)CC[C@@]3(O)[C@H]1C5.Cl [N-allyl noroxymorphone hydrochloride]
- Decrease in cell number relative to Control Cultures: 59.7%
